Patent US9120812B2, “Pyrimidooxazocine derivatives as mTOR-inhibitors” (SANOFI, priority 2012, dated 2015)

How the values were obtained:
[1] = molecular target: mTOR (human recombinant aa mTOR 1360-2549) (Homo sapiens (Human), UniProt P42345); test: mTOR enzymatic test by TR-FRET (phosphorylation of GFP-4EBP1); type: biochemical
In short: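 After a 30 min room-temperature kinase reaction, EDTA (10 mM final) and Tb-labelled phospho-Thr46 antibody (2 nM final) were added and incubated 60 min. Energy transfer from Tb to phosphorylated GFP-4EBP1 was read at 340 nm excitation, emissions 490/520 nm. Values derive from the 520/490 fluorescence ratio.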

Akt-pS473 in U87MG cells = details: Homo sapiens, U-87 MG; for IC50: read-out: U87 Akt-pS473 % Inhibition or IC50, nM (IC50), U87MG cells
PI3Kα (p110α/p85α) = PI3Kα (p110α/p85α) (Homo sapiens (Human), UniProt P42336); test: PI3Kα enzymatic test by measuring the consumption of ATP; type: biochemical
Sequence of PI3Kα (p110α/p85α) (P42336 whole entry): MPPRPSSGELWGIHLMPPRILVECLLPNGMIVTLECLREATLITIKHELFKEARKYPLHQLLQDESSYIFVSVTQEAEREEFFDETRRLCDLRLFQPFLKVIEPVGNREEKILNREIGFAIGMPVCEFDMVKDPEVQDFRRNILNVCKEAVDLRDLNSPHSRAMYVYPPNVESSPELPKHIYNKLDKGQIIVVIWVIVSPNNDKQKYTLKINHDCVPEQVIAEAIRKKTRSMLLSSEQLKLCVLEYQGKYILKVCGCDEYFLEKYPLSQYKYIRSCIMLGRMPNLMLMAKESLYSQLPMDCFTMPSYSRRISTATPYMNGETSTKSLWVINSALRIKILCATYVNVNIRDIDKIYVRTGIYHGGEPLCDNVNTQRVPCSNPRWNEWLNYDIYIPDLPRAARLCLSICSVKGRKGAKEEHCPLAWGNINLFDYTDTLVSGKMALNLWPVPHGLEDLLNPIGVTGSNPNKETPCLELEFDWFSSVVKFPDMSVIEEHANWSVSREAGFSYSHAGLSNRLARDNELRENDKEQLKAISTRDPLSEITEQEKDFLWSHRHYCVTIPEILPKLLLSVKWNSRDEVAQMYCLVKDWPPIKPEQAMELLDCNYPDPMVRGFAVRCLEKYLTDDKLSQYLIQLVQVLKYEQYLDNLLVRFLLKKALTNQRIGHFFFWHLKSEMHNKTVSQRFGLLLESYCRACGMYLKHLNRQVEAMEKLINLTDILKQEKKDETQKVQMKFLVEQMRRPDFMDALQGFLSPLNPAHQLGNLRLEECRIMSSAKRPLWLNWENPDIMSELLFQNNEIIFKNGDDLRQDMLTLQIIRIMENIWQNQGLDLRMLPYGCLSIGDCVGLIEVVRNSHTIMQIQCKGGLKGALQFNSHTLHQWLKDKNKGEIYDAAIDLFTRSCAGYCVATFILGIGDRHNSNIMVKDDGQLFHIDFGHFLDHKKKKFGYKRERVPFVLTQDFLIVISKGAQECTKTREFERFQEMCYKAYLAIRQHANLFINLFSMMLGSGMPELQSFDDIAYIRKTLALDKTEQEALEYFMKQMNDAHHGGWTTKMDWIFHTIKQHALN
Sequence of PI3Kα (p110α/p85α) (P27986 whole entry partner): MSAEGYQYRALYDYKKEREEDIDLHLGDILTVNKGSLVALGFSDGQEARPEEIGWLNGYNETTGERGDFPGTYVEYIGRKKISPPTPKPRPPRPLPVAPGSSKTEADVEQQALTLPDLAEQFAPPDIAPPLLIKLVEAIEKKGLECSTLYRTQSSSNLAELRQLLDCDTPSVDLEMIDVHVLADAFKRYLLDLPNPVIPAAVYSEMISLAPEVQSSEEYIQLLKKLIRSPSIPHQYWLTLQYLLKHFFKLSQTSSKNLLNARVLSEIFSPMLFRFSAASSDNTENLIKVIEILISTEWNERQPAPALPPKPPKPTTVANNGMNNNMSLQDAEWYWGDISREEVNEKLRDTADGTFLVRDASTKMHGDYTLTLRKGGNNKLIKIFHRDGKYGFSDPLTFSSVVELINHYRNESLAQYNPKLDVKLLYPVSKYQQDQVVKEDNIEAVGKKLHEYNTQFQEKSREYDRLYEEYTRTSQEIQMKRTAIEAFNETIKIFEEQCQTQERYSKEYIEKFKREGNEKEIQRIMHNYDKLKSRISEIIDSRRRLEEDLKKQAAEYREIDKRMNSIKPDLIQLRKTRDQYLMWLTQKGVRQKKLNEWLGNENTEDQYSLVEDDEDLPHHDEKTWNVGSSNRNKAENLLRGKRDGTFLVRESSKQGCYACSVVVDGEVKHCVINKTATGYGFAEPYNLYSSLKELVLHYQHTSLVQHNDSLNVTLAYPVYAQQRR
In short: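 ATP consumption read out by KinaseGlo luminescence after a 90 min reaction of 1.7 μg/ml PI3Kα (p110α/p85α) with 2 μM ATP and 50 μM PIP2, buffered at pH 7.5 (Tris, 10 mM MgCl2, 1 mM EGTA, 0.03% Chaps, 1 mM DTT). Threefold dilution series over ≥10 000-fold range yield IC50.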

U87MG tumour cells = test: Test of in vitro proliferation of U87MG tumour cells; type: cell-based; details: Homo sapiens, U-87 MG, 72 h, U87MG cells, 72 hours; read-out: U87 Cell Proliferation IC50
Description: Model 4: Test of in vitro Proliferation of U87MG Tumour Cells.
The cell growth is determined with the reagent CellTiter 96 AQueous One Solution Cell Proliferation Assay from Promega (Cat. No. G3581).

Sequence of mTOR (human recombinant aa mTOR 1360-2549) (P42345 1360-2549): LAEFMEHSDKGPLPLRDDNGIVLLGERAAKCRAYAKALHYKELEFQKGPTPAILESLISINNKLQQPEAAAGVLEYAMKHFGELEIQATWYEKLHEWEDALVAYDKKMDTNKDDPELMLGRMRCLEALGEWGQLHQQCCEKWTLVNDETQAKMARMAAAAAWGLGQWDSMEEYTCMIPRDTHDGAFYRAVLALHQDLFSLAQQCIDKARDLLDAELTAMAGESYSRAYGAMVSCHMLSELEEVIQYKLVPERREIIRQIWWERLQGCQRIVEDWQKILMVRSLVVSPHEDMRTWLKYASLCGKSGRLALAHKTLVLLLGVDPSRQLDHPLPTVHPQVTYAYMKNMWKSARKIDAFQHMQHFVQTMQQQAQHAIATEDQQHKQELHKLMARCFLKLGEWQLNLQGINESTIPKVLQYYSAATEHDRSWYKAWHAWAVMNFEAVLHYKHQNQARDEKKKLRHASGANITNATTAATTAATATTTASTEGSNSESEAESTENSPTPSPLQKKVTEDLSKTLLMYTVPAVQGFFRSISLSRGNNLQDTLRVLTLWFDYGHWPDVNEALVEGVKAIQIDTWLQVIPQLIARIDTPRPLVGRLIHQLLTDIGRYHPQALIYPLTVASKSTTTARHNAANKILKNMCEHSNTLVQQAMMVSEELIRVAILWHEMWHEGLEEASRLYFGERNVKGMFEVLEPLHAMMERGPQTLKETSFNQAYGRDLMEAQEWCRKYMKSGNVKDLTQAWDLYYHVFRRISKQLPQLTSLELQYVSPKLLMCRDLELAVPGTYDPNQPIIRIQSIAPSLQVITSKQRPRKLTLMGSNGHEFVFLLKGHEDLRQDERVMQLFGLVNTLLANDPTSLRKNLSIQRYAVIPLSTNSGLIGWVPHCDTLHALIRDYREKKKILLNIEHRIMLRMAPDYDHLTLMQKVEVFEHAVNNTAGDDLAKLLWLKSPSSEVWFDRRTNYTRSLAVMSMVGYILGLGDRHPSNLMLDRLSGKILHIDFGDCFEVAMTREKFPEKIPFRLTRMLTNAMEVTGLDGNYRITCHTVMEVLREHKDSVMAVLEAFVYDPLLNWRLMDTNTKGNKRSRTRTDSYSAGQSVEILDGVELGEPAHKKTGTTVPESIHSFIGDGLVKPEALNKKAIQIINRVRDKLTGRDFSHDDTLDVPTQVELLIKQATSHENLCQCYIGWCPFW

Row | Compound | IC50 [1] [nM] | IC50 (Akt-pS473 in U87MG cells) [nM] | PI3Ka IC50 (PI3Kα (p110α/p85α)) [µM] | IC50 (U87MG tumour cells) [nM] | inhibition at 3 µM (Akt-pS473 in U87MG cells; read-out: U87 Akt-pS473 % Inhibition) [%]
1 | CCNC(=O)Nc1ccc(-c2nc(N3CC4CCC(C3)O4)nc3c2C(=O)N(CC)CC(C)(C)CO3)cc1 [Example 10, 1-Ethyl-3-{4-[6-ethyl-8,8-dimethyl-2-(8-oxa-3-azabicyclo[3.2.1]oct-3-yl)-5-oxo-6,7,8,9-tetrahydro-5H-10-oxa-1,3,6-triazabenzocycloocten-4-yl]phenyl}urea] | 344 | 611 | >10 | 8770 | –
2 | CCN1CC(C)(C)Oc2nc(N3CC4CCC(C3)O4)nc(-c3ccc(NC(=O)NCCCO)cc3)c2C1=O [Example 119, 1-{4-[6-Ethyl-8,8-dimethyl-2-(8-oxa-3-azabicyclo[3.2.1]oct-3-yl)-5-oxo-5,6,7,8-tetrahydro-9-oxa-1,3,6-triazabenzocyclohepten-4-yl]phenyl}-3-(3-hydroxypropyl)urea] | 104 | 1060 | >10 | > 3000 | –
3 | CCN1CC(C)(C)Oc2nc(N3CCOC[C@@H]3C)nc(-c3ccc(NC(=O)Nc4ccc(C(=O)N(C)CCN(C)C)cc4)cc3)c2C1=O [Example 215, N-(2-Dimethylamino-ethyl)-4-(3-{4-[6-ethyl-8,8-dimethyl-2-((S)-3-methylmorpholin-4-yl)-5-oxo-5,6,7,8-tetrahydro-9-oxa-1,3,6-triazabenzocyclohepten-4-yl]phenyl}ureido)-N-methylbenzamide] | 48 | 33 | 0.037 | 32 | –
4 | COc1ccnc(NC(=O)Nc2ccc(-c3nc(N4C5CCC4COC5)nc4c3C(=O)N(C)CC(C)(C)O4)cc2)c1 [Example 70, 1-(4-Methoxypyridin-2-yl)-3-{4-[6,8,8-trimethyl-2-(3-oxa-8-azabicyclo[3.2.1]oct-8-yl)-5-oxo-5,6,7,8-tetrahydro-9-oxa-1,3,6-triazabenzocyclohepten-4-yl]phenyl}urea] | 27 | 40 | >10 | 288 | –
5 | CCN1CC(C)(C)Oc2nc(N3CC4CCC(C3)O4)nc(-c3ccc(NC(=O)Nc4cccc(C(F)(F)F)c4)cc3)c2C1=O [Example 147, 1-{4-[6-Ethyl-8,8-dimethyl-2-(8-oxa-3-azabicyclo[3.2.1]oct-3-yl)-5-oxo-5,6,7,8-tetrahydro-9-oxa-1,3,6-triazabenzocyclohepten-4-yl]phenyl}-3-(3-trifluoromethylphenyl)urea] | 182 | 28 | >10 | 297 | –
6 | CCN1CC(C)(C)Oc2nc(N3C4CCC3COC4)nc(-c3ccc(NC(=O)Nc4ccc(N5CCOCC5(C)C)nc4)c(F)c3)c2C1=O [Example 257, 1-[6-(3,3-Dimethylmorpholin-4-yl)pyridin-3-yl]-3-{4-[6-ethyl-8,8-dimethyl-2-(3-oxa-8-azabicyclo[3.2.1]oct-8-yl)-5-oxo-5,6,7,8-tetrahydro-9-oxa-1,3,6-triazabenzocyclohepten-4-yl]-2-fluorophenyl}urea] | 142 | 46 | >10 | 63 | –
7 | CCN1CC(C)(C)Oc2nc(N3CC4CCC(C3)O4)nc(-c3ccc(NC(=O)OC[C@H](C)O)c(F)c3)c2C1=O [Example 20, {4-[6-ethyl-8,8-dimethyl-2-(8-oxa-3-azabicyclo[3.2.1]oct-3-yl)-5-oxo-5,6,7,8-tetrahydro-9-oxa-1,3,6-triazabenzocyclohepten-4-yl]-2-fluorophenyl}carbamic acid (S)-2-hydroxypropyl ester] | 286 | > 1000 | >10 | 7590 | –
8 | CCN1CC(C)(C)Oc2nc(N3CC4CCC(C3)O4)nc(-c3ccc(NC(=O)NCC4CCS(=O)(=O)C4)c(F)c3)c2C1=O (centres unmarked) [Example 129, 1-(1,1-Dioxotetrahydro-1λ6-thiophen-3-ylmethyl)-3-{4-[6-ethyl-8,8-dimethyl-2-(8-oxa-3-azabicyclo[3.2.1]oct-3-yl)-5-oxo-5,6,7,8-tetrahydro-9-oxa-1,3,6-triazabenzocyclohepten-4-yl]-2-fluorophenyl}urea] | 1380 | > 3000 | >10 | > 10000 | –
9 | CCN1CC(C)(C)Oc2nc(N3CCOC[C@@H]3C)nc(-c3ccc(NC(=O)O[C@H]4CCC[C@H]4O)cc3)c2C1=O [Example 53, {4-[6-Ethyl-8,8-dimethyl-2-((S)-3-methylmorpholin-4-yl)-5-oxo-5,6,7,8-tetrahydro-9-oxa-1,3,6-triazabenzocyclohepten-4-yl]phenyl}carbamic acid (1S,2R)-2-hydroxycyclopentyl ester] | 222 | 555 | >10 | 2160 | –
10 | CC[C@H]1COCCN1c1nc2c(c(-c3ccc(NC(=O)Nc4ccc(C)nc4)c(F)c3)n1)C(=O)N(CC)CC(C)(C)O2 [Example 37, 1-{4-[6-Ethyl-2-((S)-3-ethylmorpholin-4-yl)-8,8-dimethyl-5-oxo-5,6,7,8-tetrahydro-9-oxa-1,3,6-triazabenzocyclohepten-4-yl]-2-fluorophenyl}-3-(6-methylpyridin-3-yl)urea] | 122 | 54 | 8.63 | 869 | –
11 | CCN1CC(C)(C)Oc2nc(N3CC4CCC(C3)O4)nc(-c3ccc(NC(=O)Nc4cn(C)cn4)c(F)c3)c2C1=O [Example 194, 1-{4-[6-Ethyl-8,8-dimethyl-2-(8-oxa-3-azabicyclo[3.2.1]oct-3-yl)-5-oxo-5,6,7,8-tetrahydro-9-oxa-1,3,6-triazabenzocyclohepten-4-yl]-2-fluorophenyl}-3-(1-methyl-1H-imidazol-4-yl)urea] | 27 | – | 1.23 | 2130 | 62
12 | CCN1CC(C)(C)Oc2nc(N3CC4CCC(C3)O4)nc(-c3ccc(NC(=O)Nc4ccccn4)c(F)c3)c2C1=O [Example 158, 1-{4-[6-Ethyl-8,8-dimethyl-2-(8-oxa-3-azabicyclo[3.2.1]oct-3-yl)-5-oxo-5,6,7,8-tetrahydro-9-oxa-1,3,6-triazabenzocyclohepten-4-yl]-2-fluorophenyl}-3-pyridin-2-ylurea] | 64 | 1600 | >10 | 1700 | –
13 | CCN1CC(C)(C)Oc2nc(N3CC4CCC(C3)O4)nc(-c3ccc(NC(=O)Nc4cccc(OC)c4)cc3)c2C1=O [Example 127, 1-{4-[6-Ethyl-8,8-dimethyl-2-(8-oxa-3-azabicyclo[3.2.1]oct-3-yl)-5-oxo-5,6,7,8-tetrahydro-9-oxa-1,3,6-triazabenzocyclohepten-4-yl]phenyl}-3-(3-methoxyphenyl)urea] | 16 | 24 | 3.646 | 79 | –
14 | CCN1CC(C)(C)Oc2nc(N3CC4CCC(C3)O4)nc(-c3ccc(NC(=O)Nc4ccncc4)cc3F)c2C1=O [Example 71, 1-{4-[6-Ethyl-8,8-dimethyl-2-(8-oxa-3-azabicyclo[3.2.1]oct-3-yl)-5-oxo-5,6,7,8-tetrahydro-9-oxa-1,3,6-triazabenzocyclohepten-4-yl]-3-fluorophenyl}-3-pyridin-4-ylurea] | 21 | 59 | >10 | 209 | –
